How the values were obtained:
[1] = target: T1, PyrH (Streptomyces rugosporus, UniProt A4D0H5); experiment: light-induced FTIR difference spectroscopy; settings: 3 mM compound, FAD-bound enzyme, 20 mM chloride, 35 mM DTT, pH 8.3, 10 °C, anaerobic, 450 nm photoreduction; substrate-binding site, allosterically coupled to FAD site
[2] = target: T1, PyrH; experiment: UV-vis spectroscopy after reconstitution and washing; light-induced FTIR difference spectroscopy; type: binding; settings: pH 8.3, 20 mM NaCl, 60 mM potassium phosphate

T1 sequence (A4D0H5 whole entry): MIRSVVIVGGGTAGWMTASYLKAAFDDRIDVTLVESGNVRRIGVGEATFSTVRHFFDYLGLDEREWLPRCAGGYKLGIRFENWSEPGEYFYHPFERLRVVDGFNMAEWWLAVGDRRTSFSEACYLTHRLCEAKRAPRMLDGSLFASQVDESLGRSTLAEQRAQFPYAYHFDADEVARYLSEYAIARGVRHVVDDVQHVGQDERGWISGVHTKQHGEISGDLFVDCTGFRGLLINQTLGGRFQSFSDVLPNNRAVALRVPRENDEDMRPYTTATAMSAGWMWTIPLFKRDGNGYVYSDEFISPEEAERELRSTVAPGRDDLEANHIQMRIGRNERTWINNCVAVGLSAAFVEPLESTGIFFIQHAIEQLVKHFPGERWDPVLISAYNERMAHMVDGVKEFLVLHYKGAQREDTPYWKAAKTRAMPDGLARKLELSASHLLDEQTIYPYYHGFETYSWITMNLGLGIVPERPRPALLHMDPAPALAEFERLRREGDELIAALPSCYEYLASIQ

| Structure (SMILES) | light-induced FTIR difference spectroscopy [1] | UV-vis spectroscopy after reconstitution and washing; light-induced FTIR differe [2] |
| --- | --- | --- |
| N[C@@H](Cc1c[nH]c2ccc(Cl)cc12)C(=O)O [5-chlorotryptophan] | The binding of 5-chlorotryptophan also leads to a reduction of secondary structure changes |  |
| Cc1cc2nc3c(=O)[nH]c(=O)nc-3n(C[C@H](O)[C@H](O)[C@H](O)COP(=O)(O)OP(=O)(O)OC[C@H]3O[C@@H](n4cnc5c(N)ncnc54)[C@H](O)[C@@H]3O)c2cc1C [FAD] |  | FAD remained bound to PyrH in all three samples after extensive washing steps |
| N[C@@H](Cc1c[nH]c2ccccc12)C(=O)O [tryptophan] | Tryptophan binding causes a change in the environment of FAD |  |
